Article PMC7721913 (The Journal of Cell Biology, 2020)
Like-named read-outs stand apart in the source and are kept apart here. Values belong to the substance of their own block, whether it stands above or below them. Ends that are not written are not given here.

Key:
KLC1 TPR1-6 = settings: cited from earlier work
[1] = target: KLC1 TPR1-6 fragment (KLC1: 205-501) (Homo sapiens, UniProt Q07866); test: ITC binding of SFPQ peptides to KLC1
SFPQ = test: Coimmunoprecipitation of endogenous SFPQ from DRG lysate, Western blot; assay type: binding, rat; settings: DRG sensory neuron lysate

Chain of KLC1 TPR1-6 fragment (KLC1: 205-501) (Q07866 205-501): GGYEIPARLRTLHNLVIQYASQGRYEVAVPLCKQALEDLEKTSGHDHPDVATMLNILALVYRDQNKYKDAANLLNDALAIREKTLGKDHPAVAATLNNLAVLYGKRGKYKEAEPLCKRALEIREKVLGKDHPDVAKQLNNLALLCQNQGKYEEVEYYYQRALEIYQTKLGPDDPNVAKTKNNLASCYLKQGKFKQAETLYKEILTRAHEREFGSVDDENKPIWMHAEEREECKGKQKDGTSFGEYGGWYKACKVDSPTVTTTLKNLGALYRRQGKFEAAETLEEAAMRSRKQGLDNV

Substance: TCPTEDIYLE [JIP1: TCPTEDIYLE]
Kd (KLC1 TPR1-6; KLC1: 205-502, ref Nguyen et al., 2018): 5 ± 0.5 µM

Substance: ESEMEDAYHEHQANLLR [WT SFPQ peptide]
Kd [1]: 3.83 ± 2.31 µM

Substance: KIF1A: axonal transport motor protein in DRGs
coimmunoprecipitation with SFPQ (in words) (SFPQ): none of these kinesins significantly coimmunoprecipitates with SFPQ

Substance: EYTCPTEDIYLE [JIP1: EYTCPTEDIYLE]
Kd (KLC1 TPR1-6; KLC1: 228-495, ref Zhu et al., 2012): 9.4 ± 5.85 µM

binding to KLC1 (in words) ([1]; ITC, 25°C, pH 7.5): did not bind to KLC1
ΔS ([1]; ITC, 20 mM Hepes (pH 7.5), 150 mM NaCl, 0.5 mM TCEP, 2% DMSO, 25°C): No binding
ΔH ([1]; ITC, 20 mM Hepes (pH 7.5), 150 mM NaCl, 0.5 mM TCEP, 2% DMSO, 25°C, single-site model): No binding
Substance: ESEMEDAAHEHQANLLR [SFPQ^Y527A peptide]

Substance: KIF3A: kinesin transporting RNA granules in neurons
coimmunoprecipitation with SFPQ (in words) (SFPQ): none of these kinesins significantly coimmunoprecipitates with SFPQ
